Assay results reported in patent US12594265B2, “Methods and compositions for inhibition of STAT3” (Ohio State Innovation Foundation, priority 2017, dated 2026).

What was measured:
[1] = tested on: pSTAT3 in myelin-specific CD4 T cells; assay: pSTAT3 levels in myelin-specific CD4 T cells (intracellular flow cytometry); type: cell-based, mice; details: 0.250 μM; MBP Ac1-11 and IL-6 activation
Experimental: Intracellular staining and flow cytometric analysis. Flow cytometric analysis was performed to evaluate the expression of surface markers and T-bet in CD4 T cells, as previously described (Yang, Weiner et al. 2009). Briefly, splenocytes were activated with antigen or αCD3/CD28 for 48 to 72 hours. Cells were then collected, washed, and resuspended in staining buffer (1% BSA in PBS). The cells were incubated with mAbs to the cell-surface markers for 30 min at 4° C. After washing twice with staining buffer, cells were fixed and permeabilized using Cytofix/Cytoperm solution for 20 min at 4° C. Cells were stained for intracellular cytokines and T-bet for 30 min at 4° C. 80,000-100,000 live cell events were acquired on a FACSCanto (BD) and analyzed using FlowJo software (Tree Star, Inc.). PerCP-anti-CD4, and Pacific Blue-anti-CD44 were purchased from BD. PE-anti-PD-1, PE-Cy7-anti-IL-7Rα and Pacific Blue-anti-T-bet were purchased from Biolegend Biotechnology, Inc.
LLL12b suppresses pSTAT3 expression and IL-17 production in myelin-specific CD4 T cells in a dose-dependent manner. LLL21b was further tested to assess suppression of pSTAT3 expression in myelin-specific CD4 T cells. FIGS. 7A-7B show representative data for the effect of a representative disclosed compound, LLL12b, on IL-17 production, pSTAT3 levels, and cell viability under various conditions. […]

[2] = tested on: pSTAT3 in CD4 T cells from MS patients; assay: Phosphorylation of STAT3 in CD4 T cells from MS patients (phospho flow cytometry); type: cell-based, human; details: 0.25 μM; αhCD3 plus rhIL-6 for 30 minutes; 6 patients
Experimental: FIGS. 13A-13C show representative data for the effect of LLL12b treatment on the phosphorylation status of STAT3 in CD4 T-cells obtained from MS patients. Briefly, PBMCs from treatment-naïve MS patients were activated with αhCD3 plus rhIL-6 for 30 minutes, in the presence of 0.25 μM of LLL12b or vehicle control (DMSO). pSTAT3 was determined by phospho flow cytometry. Cells were gated on CD4+ cells.
LLL12b inhibits the phosphorylation of STAT3 in CD4 T cells from MS patients. To determine whether LLL12b suppresses the phosphorylation of STAT3 in human CD4 T cells, PBMCs from 6 treatment-naïve MS patients were activated with αhCD3 plus rhIL-6 for 30 minutes, in the presence of 0.25 μM of LLL12b or vehicle control (DMSO). pSTAT3 was determined by phospho flow cytometry.

[3] = tested on: splenocytes from naïve TCR transgenic mice; assay: Cellular toxicity, trypan blue exclusion assay; type: cell-based; details: 24 h, 48 h, 72 h; at the doses showing significant suppression of IL-17 production
Experimental: In vitro toxicity evaluation of new STAT3 prodrugs. Cellular toxicity testing was carried out using a trypan blue exclusion assay as described herein. FIGS. 6A-6C show representative data for cell viability after treatment with DMSO or the indicated concentration of the indicated representative prodrug at 24 h, 48 h, and 72 h post-treatment. The data were obtained using a trypan blue exclusion assay using splenocytes from naïve TCR transgenic mice that were cultured as described.

[4] = tested on: CD25+FoxP3+ iTregs of CD4 T cells from MS patients; assay: iTreg development of CD4 T cells from MS patients (intracellular flow cytometry); type: cell-based, human
Experimental: FIGS. 14A-14M show representative data for LLL12b suppression of human Th17 development and promotion of Treg development in CD4 T-cells from MS patients. FIGS. 14A, 14E, 14H, and 14K each shown representative data obtained in PBMCs from 22 treatment-naïve MS patients that were activated with αhCD3 plus rhIL-6 for 3 days, in the presence of 0.125 μM or 0.25 μM of LLL12b. DMSO was used as a vehicle control. IL-17 in supernatant was determined by ELISA. FIGS. 14B-14C, 14F, 14I, and 14L each shown representative data obtained in PBMCs from 22 treatment-naïve MS patients that were activated with αhCD3/CD28 plus rhTGFβ. rhIL-2 and RA for 3 days, in the presence of 0.125 μM of LLL12b. DMSO was used as vehicle control. CD25+FoxP3+CD4+ iTregs were determined by intracellular flow cytometry. Cells were gated CD45RA+CD4+ cells. […] IL-17 in each group was compared with one-way ANOVA. […] FIG. 14G the calculated IL-17/Treg ratio of each patient in LLL12b group and DMSO group and compared with Wilcoxon matched-pairs signed rank test. […] FIG. 14J the calculated percent decrease of IL-17/Treg ratio in LLL12b group compared to DMSO group. […] FIG. 14M patient numbers in different ranges of calculated percent decrease of IL-17/Treg.
Meanwhile, we determined the extent to which LLL12b promotes the development of iTregs of CD4 T cells from MS patients (FIGS. 14B-14C, 14F, 14I, and 14L). PBMCs from 22 treatment-naïve MS patients were activated with αhCD3/CD28 for 3 days, in the presence of TGFβ, IL-2 and trans-retinoic acid (iTreg differentiating condition). After 72 h of culture under iTreg differentiating condition, the total number of CD25+FoxP3+ iTregs in the CD4+CD45RA+ population increased from 40% in control group to 59% in the group treated with LLL12b.

[5] = of 22 treatment-naïve MS patients, compared to DMSO

## CN(C)C(=O)Oc1cccc2c1C(=O)c1cccc(S(N)(=O)=O)c1C2=O [LLL12b]
[1]
  pSTAT3 expression: notably suppresses pSTAT3 expression
[2]
  pSTAT3 expression in CD4 T cells from MS patients: significantly suppresses pSTAT3 expression
[3]
  cellular toxicity (cell viability, trypan blue exclusion): minimal cellular toxicity
[4]; 0.125 μM, 22 treatment-naïve MS patients
  iTreg development of CD4 T cells from MS patients: significantly promotes iTreg development
[4]; [5]
  patient numbers with % Increase of iTregs 5-20%: 13
  patient numbers with % Increase of iTregs 20-40%: 3
  patient numbers with % Increase of iTregs <5%: 5
  patient numbers with % Increase of iTregs >40%: 1
[4]; one MS patient, 72 h, iTreg differentiating condition, control group 40%
  CD25+FoxP3+ iTregs in the CD4+CD45RA+ population: 59%
